{
  "source": "patent EP4316461A1",
  "about": "“A PRESERVATIVE COMPOSITION” (BRAIN Biotech AG, priority 2022, dated 2024)",
  "assay_in_all_cases": "Antimicrobial activity (MIC)",
  "format_in_all_cases": "cell-based",
  "key": {"[1]": {"test_system": "Aspergillus brasiliensis", "conditions": "Aspergillus brasiliensis, DSM1988; Strain ID DSM 1988; potato dextrose broth pH 3.8; read-out: Minimal Inhibitory Concentration (MIC)"}, "[2]": {"test_system": "Brettanomyces naardenensis", "conditions": "Brettanomyces naardenensis, CBS6115; Strain ID CBS 6115; potato dextrose broth pH 3.8; read-out: Minimal Inhibitory Concentration (MIC)"}, "[3]": {"test_system": "Byssochlamys fulva", "conditions": "Paecilomyces fulvus, DSM1808; Strain ID DSM 1808; potato dextrose broth pH 3.8; read-out: Minimal Inhibitory Concentration (MIC)"}, "[4]": {"test_system": "Campylobacter jejuni", "conditions": "Campylobacter jejuni, DSM4688; Strain ID DSM 4688; potato dextrose broth pH 3.8; read-out: Minimal Inhibitory Concentration (MIC)"}, "[5]": {"test_system": "Cladosporium cladosporioides", "conditions": "Cladosporium cladosporioides; Strain ID DSM19653; potato dextrose broth pH 3.8; read-out: Minimal Inhibitory Concentration (MIC)"}, "[6]": {"test_system": "Corynebacterium xerosis", "conditions": "Corynebacterium xerosis, DSM20743; Strain ID DSM 20743; potato dextrose broth pH 3.8; read-out: Minimal Inhibitory Concentration (MIC)"}, "[7]": {"test_system": "Cutibacterium acnes", "conditions": "Cutibacterium acnes, DSM1897; Strain ID DSM 1897; potato dextrose broth pH 3.8; read-out: Minimal Inhibitory Concentration (MIC)"}, "[8]": {"test_system": "Lactobacillus paracasei ssp. paracasei", "conditions": "Lacticaseibacillus paracasei, DSM46331; Strain ID DSM 46331; potato dextrose broth pH 3.8; read-out: Minimal Inhibitory Concentration (MIC)"}, "[9]": {"test_system": "Pasteurella multocida ssp. multocida", "conditions": "Pasteurella multocida, DSM16031; Strain ID DSM 16031; potato dextrose broth pH 3.8; read-out: Minimal Inhibitory Concentration (MIC)"}, "[10]": {"test_system": "Penicillium expansum", "conditions": "Penicillium expansum, DSM62841; Strain ID DSM 62841; potato dextrose broth pH 3.8; read-out: Minimal Inhibitory Concentration (MIC)"}, "[11]": {"test_system": "Salmonella enterica ssp. enterica Ser. typhimurium", "conditions": "Salmonella enterica, DSM 17058 / TYPHIMURIUM; Strain ID DSM 17058; potato dextrose broth pH 3.8; read-out: Minimal Inhibitory Concentration (MIC)"}, "[12]": {"test_system": "Staphylococcus aureus", "conditions": "Staphylococcus aureus, DSM2569; Strain ID DSM 2569; potato dextrose broth pH 3.8; read-out: Minimal Inhibitory Concentration (MIC)"}, "[13]": {"test_system": "Zygosaccharomyces bailii", "conditions": "Zygosaccharomyces bailii, DSM70834; Strain ID DSM 70834; potato dextrose broth pH 3.8; read-out: Minimal Inhibitory Concentration (MIC)"}},
  "data": [
    {"smiles": "C[C@@H]1O[C@@H](O[C@H]2[C@H](O[C@H]3CC[C@@]4(C)[C@@H](CC[C@]5(C)[C@@H]4CC=C4[C@@H]6CC(C)(C)CC[C@]6(C(=O)O)CC[C@]45C)[C@]3(C)CO)OC[C@H](O)[C@@H]2O)[C@H](O)[C@H](O[C@@H]2OC[C@@H](O)[C@H](O)[C@H]2O)[C@H]1O", "note": "[A, Sapindoside B [30994-75-3]]", "values": [
      {"measurement": "MIC", "setting": "[1]", "value": "> 80", "unit": "µg/mL"},
      {"measurement": "MIC", "setting": "[2]", "value": "> 80", "unit": "µg/mL"},
      {"measurement": "MIC", "setting": "[3]", "value": "> 80", "unit": "µg/mL"},
      {"measurement": "MIC", "setting": "[4]", "value": "> 80", "unit": "µg/mL"},
      {"measurement": "MIC", "setting": "[5]", "value": "> 80", "unit": "µg/mL"},
      {"measurement": "MIC", "setting": "[6]", "value": "> 80", "unit": "µg/mL"},
      {"measurement": "MIC", "setting": "[7]", "value": "> 80", "unit": "µg/mL"},
      {"measurement": "MIC", "setting": "[8]", "value": "> 80", "unit": "µg/mL"},
      {"measurement": "MIC", "setting": "[9]", "value": "> 80", "unit": "µg/mL"},
      {"measurement": "MIC", "setting": "[10]", "value": "> 500", "unit": "µg/mL"},
      {"measurement": "MIC", "setting": "[11]", "value": "> 80", "unit": "µg/mL"},
      {"measurement": "MIC", "setting": "[12]", "value": "> 80", "unit": "µg/mL"},
      {"measurement": "MIC", "setting": "[13]", "value": "> 80", "unit": "µg/mL"}
    ]}
  ]
}
